Results: patent US7307166B1, “Oxpurine nucleosides and their congeners, and acyl, derivatives thereof, for improvement of hematopoiesis” (Wellstat Therapeutics Corporation, priority 1987, dated 2007)

Columns and labels:
[1] = test system: Balb/C female mice; test: Hematopoietic recovery after cyclophosphamide in mice (spleen weight, blood cell counts); type: in vivo, mouse; conditions: for recovery of blood cell counts: Ex 58: mice treated with cyclophosphamide, other nonionic surfactants; for total neutrophil counts: 2 μmoles/mouse
[2] = test system: FDCPmix cells; test: FDCPmix cell proliferation in the presence of IL-3 (MTT assay); type: cell-based
Procedure: The FDCPmix cell line was used as a suitable in vitro model for predicting the effects of hematopoietic factors on pluripotential stem cells. These cells can be maintained in an undifferentiated state in the presence of IL-3 or undergo multi-lineage development in the presence of specific hematopoietic growth factors.
This level of proliferation (100%) served as the control value. Inhibition of proliferation by test compounds was represented as a percent of control.
FDCPmix cells were plated at a density of 5×10^4 cells per well in 96-well plates (5×10^5/ml) using IMDM medium plus 10% fetal bovine serum. […] Test compounds were added at a decreasing concentrations ranging from 10 micrograms/ml down to 1 nanogram/ml. The test compounds included: 3′,5′-O—N^2-tripalmitoyl-2′-deoxyguanosine, 3′,5′-di-O-palmitoyl-2′-deoxy-guanosine, 3′,5′-O—N^2-trioctanoyl-2′-deoxyguanosine, 3′,5′-di-O-octanoyl-2′-deoxyguanosine, and 3′,5′-o-N^2-trioleyl-2′-deoxy-guanosine.

[3] = Table 8 (Ex 63): 7 days after CP
[4] = Dose 10 μg, 48 hours, IL-3 25 units/ml
[5] = Ex 51: day 5 after CP, 2 μmoles/mouse i.p. daily, vs Tween-80

## Triton X-100
[1]
  recovery of blood cell counts: enhanced the recovery

## CCCCCCCCCCCCCCCCCC(=O)Nc1nc2c(ncn2[C@H]2C[C@H](OC(=O)CCCCCCCCCCCCCCCCC)[C@@H](COC(=O)CCCCCCCCCCCCCCCCC)O2)c(=O)[nH]1 [TriSdG, 3′,5′-O-N^2-tristearyl-2′-deoxyguanosine]
[1]; [3]
  Neutrophils: 5.4 ± .5 K/μl
  WBC: 7.6 ± .4 K/μl
[1]; Table 8 (Ex 63): 7 days after CP, TriPdG 25 mg/kg, others molar equivalent, daily 5 days
  Spleen: 85 ± 9 mg

## polyoxyethylene-10-oleyl ether [Brij 96]
[1]
  recovery of blood cell counts: enhanced the recovery

## Tween 20
[1]
  recovery of blood cell counts: enhanced the recovery

## octylphenol-ethylene oxide condensate [Nonidet P-40]
[1]
  recovery of blood cell counts: enhanced the recovery

## CCCCCCCC/C=C\CCCCCCCC(=O)Nc1nc2c(ncn2[C@H]2C[C@H](OC(=O)CCCCCCC/C=C\CCCCCCCC)[C@@H](COC(=O)CCCCCCC/C=C\CCCCCCCC)O2)c(=O)[nH]1 [TriOdG, 3′,5′-O-N^2-trioleyl-2′-deoxyguanosine]
[2]; Dose 10 ng
  Cell proliferation (% of Control): 92 ± 5 % of Control
[2]; Dose 39 ng
  Cell proliferation (% of Control): 91 ± 5 % of Control
[2]; Dose 156 ng
  Cell proliferation (% of Control): 92 ± 5 % of Control
[2]; Dose 625 ng
  Cell proliferation (% of Control): 98 ± 6 % of Control
[2]; Dose 2.5 μg
  Cell proliferation (% of Control): 80 ± 2 % of Control
[2]; [4]
  Cell proliferation (% of Control): 110 ± 3 % of Control
[1]; Ex 63: day 7 after CP, molar equivalent of 25 mg/kg TriPdG
  lymphocyte counts: increased
[1]; [3]
  Platelets: 741 ± 54 K/μl

## CCCCCCCCCCCCCCCC(=O)O[C@H]1C[C@H](n2cnc3c(=O)[nH]c(N)nc32)O[C@@H]1CO [3′-O-palmitoyldeoxyguanosine, 3′-O-Palmitoyl-2′-Deoxyguanosine]
[1]; Ex 51: day 5 after CP
  total neutrophil counts: significantly elevated
[1]; [5]
  spleen weight: significantly elevated

## CCCCCCCC(=O)OC[C@H]1O[C@@H](n2cnc3c(=O)[nH]c(N)nc32)C[C@@H]1OC(=O)CCCCCCC [DiOctdG, 3′,5′-di-O-octanoyl-2′-deoxyguanosine]
[2]; Dose 10 ng
  Cell proliferation (% of Control): 84 ± 2 % of Control
[2]; Dose 39 ng
  Cell proliferation (% of Control): 86 ± 1 % of Control
[2]; Dose 156 ng
  Cell proliferation (% of Control): 84 ± 6 % of Control
[2]; Dose 625 ng
  Cell proliferation (% of Control): 93 ± 1 % of Control
[2]; Dose 2.5 μg
  Cell proliferation (% of Control): 78 ± 2 % of Control
[2]; [4]
  Cell proliferation (% of Control): 100 ± .3 % of Control

## CCCCCCCCCCCCCCCC(=O)OC[C@H]1O[C@@H](n2c(N)nc3c(=O)[nH]c(N)nc32)[C@H](O)[C@@H]1O [palmitoyl-8-aminoguanosine]
[1]; Ex 59: days 5 and 7 after CP, 25 mg/kg/day
  spleen weight: significantly elevated
[1]; Ex 59: days 5 and 7 after CP, 25 mg/kg/day in 0.2% Tween 80 i.p.
  Neutrophils: significantly elevated

## CCCCCCCCCCCCCCCC(=O)OC[C@H]1O[C@@H](n2cnc3c(=O)[nH]c(NC(=O)C(C)C)nc32)C[C@@H]1O [NibuPdG, N^2-isobutyryl-5′-O-palmitoyl-2′-deoxyguanosine]
[1]; Ex 51: day 5 after CP
  total neutrophil counts: significantly elevated
[1]; [5]
  spleen weight: significantly elevated

## CCCCCCCC(=O)Nc1nc2c(ncn2[C@H]2C[C@H](OC(=O)CCCCCCC)[C@@H](COC(=O)CCCCCCC)O2)c(=O)[nH]1 [TriOctdG, 3′,5′-O—N^2-trioctanoyl-2′-deoxyguanosine]
[2]; Dose 10 ng
  Cell proliferation (% of Control): 87 ± 4 % of Control
[2]; Dose 39 ng
  Cell proliferation (% of Control): 85 ± 2 % of Control
[2]; Dose 156 ng
  Cell proliferation (% of Control): 89 ± 6 % of Control
[2]; Dose 625 ng
  Cell proliferation (% of Control): 86 ± 2 % of Control
[2]; Dose 2.5 μg
  Cell proliferation (% of Control): 96 ± .1 % of Control
[2]; [4]
  Cell proliferation (% of Control): 107 ± 1 % of Control

## CCCCCCCCCCCCCCCC(=O)OC[C@H]1O[C@@H](n2cnc3c(=O)[nH]cnc32)[C@H](O)[C@@H]1O [Palmitoylinosine]
[1]; Ex 49 heading, 2.5 μmoles/mouse
  Hematopoietic Recovery after cyclophosphamide: Improves

## Tween 40
[1]
  recovery of blood cell counts: enhanced the recovery
